Each structure is given as a SMILES string. Where two headings read alike, the source gives them in different places.

The nature of data set [1]: XRPD FWHM of the peak at 8.7±0.2° 2θ (degree of crystal imperfections), method 1. The settings on record: for FWHM (automatic mode), XRPD peak around 8.7 ± 0.2° 2θ, Before: before heat treatment. It counts as physicochemical. The method, then: (§1) XRPD was performed using a Malvern Panalytical Empyrean diffractometer at ambient conditions. The diffraction pattern was measured at room temperature using an Empyrean Cu LFF HR (45 kV/40 mA) source and PIXcel3D-Medipix3 1×1 detector. The measurement was performed in the range of 2-40° 20 using a scan speed of 0.067335° 2θ/s and a step size of 0.0262606° 2θ. The samples were measured in transmission mode and with a spinner revolution time of 1 second. Approximately 200 mg of sample were placed between two sheets of Kapton Polyimide Thin-film. The measurements were performed using a Soller slit of 0.04 radians and a fixed divergence slit of 0.5° on the incident beam, and a 3 mm Anti scatter slit and a Soller slit of 0.04 radians in the diffracted beam.
The degree of crystal imperfections was assessed by use of the FWHM as more crystal imperfections might cause peak broadening and lower peak height, which leads to higher FWHM values due to fewer lattice planes with identical orientation contributing to the diffraction peak. Oppositely, in the absence of crystal imperfections, lattice planes with identical orientation increase and result in narrower and higher diffraction peaks leading to smaller FWHM values. The FWHM was calculated using the characteristic peak at 8.7±0.2° 2θ by finding the apex of the peak and measuring the height of the peak applying the x-axis as the baseline (automatic mode) (see FIG. 11) or applying a baseline spanning the two surrounding troughs (manual mode) (see FIG. 12). This value is then divided in half to find the half height. Hereafter the width of the peak at that half height is measured and reported in ° 2θ. Alternatively, the peak at 6.0±0.2° 2θ may also be used to calculate the FWHM.
(§2) Samples from a batch of SNAC polymorphic form A (Batch 5) with a FWHM of 0.97° 2θ (automatic mode) and a moisture uptake of 1.98% at 65% RH from the beginning were heated to 90, 100, 110, 120, 130, and 140° C., respectively, in a tray oven. The samples were exposed to their respective temperatures for up to 72 h. The sample size was small enough to ensure that the samples equilibrated completely, within a few of minutes, to the oven temperature. Samples were taken during the 72 h of elevated temperature exposure and subjected to XRPD measurements in accordance with method 1 to determine the polymorphic form and impact on crystal imperfections using FWHM with the x-axis as the baseline (automatic mode).
(§3) Samples from different batches of SNAC polymorphic form A were subjected to a heat treatment in a tray oven and the sample size was small enough to ensure that the samples equilibrated completely and within a couple of minutes to the oven temperature. Samples were taken from the batches before the heat treatment and after the heat treatment and subjected to XRPD measurements in accordance with method 1 to determine the polymorphic form and impact on crystal imperfections using FWHM with the x-axis as the baseline (auto mode). Furthermore, samples were also subjected to DVS measurements in accordance with method 3 to determine the impact of the heat treatment on the hygroscopicity.

Data set [2] can be described thus: Dynamic vapour sorption (DVS) moisture uptake, method 3. The class given is physicochemical. The settings on record: for Moisture absorption at 65% RH, Before: before heat treatment. The method, then:
Moisture sorption/desorption data were measured by a Dynamic Vapour Sorption Advantage 1 from Surface Measurement Systems. Prior to analysis the samples were dried for up to about 48 h in desiccators containing phosphorus pentoxide. Approximately 20 mg of sample was placed into a balance pan and loaded into the instrument and the sample was then further dried for a minimum of 500 min in the instrument at 0% RH using a nitrogen purge. The resulting sample weight after the further drying was assigned as the 0% start weight and all weight gains and losses was calculated relative to this start weight. Sorption and desorption isotherms were collected over a range from 0 to 90% relative humidity (RH) using a nitrogen purge at 25° C. The threshold for equilibrium used for analysis was 0.002 to 0.0005 dm/dt.
Furthermore, samples were taken after 24 h of exposure at the indicated elevated temperatures and were subjected to dynamic vapor sorption measurements in accordance with method 3 to determine the hygroscopicity. The moisture uptake was measured at 65% RH. The hygroscopicity is decreased as the moisture absorbed at 65% RH decreases when exposing SNAC polymorphic form A to elevated temperatures for 24 h.

Data set [3] is described as follows: XRPD with moisture chamber: relative humidity for onset of conversion of form A to trihydrate form F, method 2. It counts as physicochemical. The settings on record: increasing RH at ambient conditions. An excerpt: The moisture chamber allows for controlling the humidity and temperature of the samples during XRPD measurements.
Samples from different batches of SNAC polymorphic form A were subjected to increasing levels of relative humidity at ambient conditions inside a humidity chamber with the possibility of simultaneous determination of the polymorphic form in accordance with the XRPD method 2. The diffractograms were visually inspected for the appearance of characteristic diffraction peaks for the SNAC polymorphic form F in order to determine at which relative humidity polymorphic conversion of form A to F started.

Data set [4] can be described thus: Polymorphic form determined by XRPD, method 1. The class given is physicochemical. Conditions: after heat treatment 150° C. for 1 h. The method, then:
as §1
The polymorphic form of the sample was determined by comparison of the diffractogram obtained for the sample with reference diffractograms for the SNAC polymorphs and solvates.
as §2, §3

Data set [5] can be described thus: Dynamic vapour sorption (DVS) moisture uptake, method 3. The settings on record: not ground. The class given is physicochemical.
The conditions of data set [6]: heat treatment: None; derived from example 1 and figures of WO 2005/107462; cited from earlier work.
The conditions of data set [7]: heat treatment: None; derived from example 1 and figures of WO 2005/107462; cited from earlier work. This is another data set of the same source.
The mark [8] stands for this setting: after heat treatment 115° C. for 24 h.
The mark [9] stands for this setting: after heat treatment 150° C. for 1 h.
Setting [10] is: after heat treatment 120° C. for 20 h.
Setting [11] is: after heat treatment 120° C. for 24 h.
[12] abbreviates: heat treatment 115° C. for 24 h.
The mark [13] stands for this setting: ground in a mortar with pestle for about 10 min.
Setting [14] is: made per example 2 of WO 2008/028859, after drying at 90° C. for 18 h.

With `O=C([O-])CCCCCCCNC(=O)c1ccccc1O.[Na+]` [Batch 1, monosodium N-[8-(2-hydroxybenzoyl)-amino]caprylate], the “FWHM (automatic mode), XRPD peak around 8.7 ± 0.2° 2θ, After” value (shortened to “FWHM (automatic mode) … After”) in data set [1] (setting [8]) is 0.60 ° 2θ. For the same compound, the “FWHM (automatic mode), XRPD peak around 8.7 ± 0.2° 2θ, Before” value (“FWHM (automatic mode) … Before” for short) in data set [1] amounted to 1.08 ° 2θ. In addition, the “Moisture absorption at 65% RH, After” value in data set [2] (setting [8]) turned out to be 1.26%. Further, the “Moisture absorption at 65% RH, Before” value in data set [2] is listed as 2.66%.
As for `O=C([O-])CCCCCCCNC(=O)c1ccccc1O.[Na+]` [Batch 2, monosodium N-[8-(2-hydroxybenzoyl)-amino]caprylate], the “FWHM (automatic mode) … After” value in data set [1] (setting [9]) is 0.42 ° 2θ. For the same compound, the “FWHM (automatic mode) … Before” value in data set [1] was determined as 1.21 ° 2θ. Further, the “FWHM (manual mode)” value in data set [1] (heat treatment: None) is 0.84 °2θ. In addition, in data set [2] (setting [9]), the “Moisture absorption at 65% RH, After” value came out at 1.04%. The “Moisture absorption at 65% RH, Before” value in data set [2] worked out at 2.90%. Further, the “Moisture absorption at 65% RH” value in data set [2] (heat treatment: None) is on record as 2.90%. The “Onset of trihydrate conversion (form A to form F)” value (“Onset of trihydrate conversion” for short) in data set [3] (heat treatment: None) is listed as 70 % RH. Also, the “Polymorphic form, After” value in data set [4] is recorded as “A & B”.
In the case of `O=C([O-])CCCCCCCNC(=O)c1ccccc1O.[Na+]` [Batch 3, monosodium N-[8-(2-hydroxybenzoyl)-amino]caprylate], the “FWHM (manual mode)” value in data set [1] (heat treatment: None) was 0.66 °2θ. Also, the “Moisture absorption at 65% RH” value in data set [2] (heat treatment: None) is listed as 1.95%. Also, the “Onset of trihydrate conversion” value in data set [3] (heat treatment: None) was found to be 75 % RH.
For the compound `O=C([O-])CCCCCCCNC(=O)c1ccccc1O.[Na+]` [Batch 4, monosodium N-[8-(2-hydroxybenzoyl)-amino]caprylate], the “FWHM (automatic mode) … After” value in data set [1] (setting [10]) came out at 0.58 ° 2θ. Also, the “FWHM (automatic mode) … Before” value in data set [1] turned out to be 0.79 ° 2θ. Besides, the “Moisture absorption at 65% RH, After” value in data set [2] (setting [10]) is listed as 0.84%. For the same compound, the “Moisture absorption at 65% RH, Before” value in data set [2] worked out at 0.83%.
For the compound `O=C([O-])CCCCCCCNC(=O)c1ccccc1O.[Na+]` [Batch 5, monosodium N-[8-(2-hydroxybenzoyl)-amino]caprylate], the “FWHM (automatic mode) … After” value in data set [1] (setting [11]) was found to be 0.58 ° 2θ. The “FWHM (automatic mode) … Before” value in data set [1] is 0.97 ° 2θ. In addition, in data set [2] (setting [11]), the “Moisture absorption at 65% RH, After” value was 0.94%. The “Moisture absorption at 65% RH, Before” value in data set [2] turned out to be 1.98%.
With `O=C([O-])CCCCCCCNC(=O)c1ccccc1O.[Na+]` [Batch 6, monosodium N-[8-(2-hydroxybenzoyl)-amino]caprylate], in data set [1] (heat treatment: None), the “FWHM (manual mode)” value stood at 0.65 °2θ. Also, the “Moisture absorption at 65% RH” value in data set [2] (heat treatment: None) came to 1.81%. Also, the “Onset of trihydrate conversion” value in data set [3] (heat treatment: None) is on record as 75 % RH.
`O=C([O-])CCCCCCCNC(=O)c1ccccc1O.[Na+]` [Batch 7, monosodium N-[8-(2-hydroxybenzoyl)-amino]caprylate]: in data set [1] (heat treatment: None), the “FWHM (manual mode)” value is listed as 0.61 °2θ. For the same compound, the “Moisture absorption at 65% RH” value in data set [2] (heat treatment: None) was 2.06%. Further, the “Onset of trihydrate conversion” value in data set [3] (heat treatment: None) was 70 % RH.
As to `O=C([O-])CCCCCCCNC(=O)c1ccccc1O.[Na+]` [Batch 8, monosodium N-[8-(2-hydroxybenzoyl)-amino]caprylate], the figures for the “FWHM (manual mode)” value in data set [1] (setting [12]) and in data set [1] (heat treatment: None) were 0.47 °2θ and 0.82 °2θ, respectively. Besides, the “Moisture absorption at 65% RH” value in data set [2] (setting [12]) was 0.99%; in data set [2] (heat treatment: None) it was 2.51%. Moreover, the “Onset of trihydrate conversion” value in data set [3] (setting [12]) is reported as 80 % RH; in data set [3] (heat treatment: None), 70 % RH.
As to `O=C([O-])CCCCCCCNC(=O)c1ccccc1O.[Na+]` [Batch 9, monosodium N-[8-(2-hydroxybenzoyl)-amino]caprylate], the “FWHM (manual mode)” value is on record as 0.52 °2θ in data set [1] (setting [12]) and 0.60 °2θ in data set [1] (heat treatment: None). The “Moisture absorption at 65% RH” value in data set [2] (setting [12]) is listed as 0.98%; in data set [2] (heat treatment: None), 1.29%. Moreover, the “Onset of trihydrate conversion” value in data set [3] (setting [12]) and in data set [3] (heat treatment: None) was 80 % RH in each case.
`O=C([O-])CCCCCCCNC(=O)c1ccccc1O.[Na+]` [Batch 10, monosodium N-[8-(2-hydroxybenzoyl)-amino]caprylate]: the “Moisture absorption at 60% RH” value in data set [5] was 1.19%; in data set [2] (setting [13]), 2.99%. For the same compound, the “FWHM (auto mode)” value in data set [1] (setting [13]) is 1.00 °2θ; in data set [1] (not ground) it was 0.79 °2θ.
Regarding `O=C([O-])CCCCCCCNC(=O)c1ccccc1O.[Na+]` [Batch 11, monosodium N-[8-(2-hydroxybenzoyl)-amino]caprylate, reference compound], the “FWHM (auto mode)” value in data set [1] (setting [14]) was 1.12 °2θ. Further, in data set [2] (setting [14]), the “Moisture absorption at 65% RH” value is reported as 2.62%.
For the compound `O=C([O-])CCCCCCCNC(=O)c1ccccc1O.[Na+]` [Batch X, monosodium N-[8-(2-hydroxybenzoyl)-amino]caprylate], the “Moisture absorption at 65% RH” value in data set [6] was 1.50%. Besides, in data set [7], the “FWHM (manual mode)” value is listed as 0.90 °2θ.

These data come from patent US20240294466A1, “SODIUM N-(8-(2- HYDROXYBENZOYL)AMINO)CAPRYLATE P[…] A” (Novo Nordisk A/S, priority 2021, published 2024).
